Laboratory results as given in patent publication US20250281464A1, “TREATMENT OF PATHOGENIC NEISSERIA SP. INFECTION WITH TRIAZOLE ANTIFUNGAL AGENTS” (Virginia Tech Intellectual Properties, Inc., priority 2022, published 2025).
Values after ≈ are worked out from the molar mass of the structure shown. Like-named read-outs stand apart in the source and are kept apart here. Values belong to the compound of their own block, whether it stands above or below them.

Legend:
N. gonorrhoeae = assay: Post-antibiotic effect (PAE) against N. gonorrhoeae; assay type: cell-based, Neisseria gonorrhoeae; settings: 1 h exposure at 10×MIC
Source text: Determining the PAE of a new antimicrobial is an important step for dosing and has clinical importance.

N. gonorrhoeae isolates = assay: MIC against panel of N. gonorrhoeae clinical isolates; assay type: cell-based, Neisseria gonorrhoeae; settings: for MIC50 / MIC90: Neisseria gonorrhoeae; for MIC50: read-out: MIC50; for MIC90: read-out: MIC90
N. mucosa = assay: MIC against Neisseria spp.; assay type: cell-based; settings: N. mucosa (1 strain)
Source text: (§1) Intrigued by the specificity and potent activity of azoles against N. gonorrhoeae, we evaluated the extent of the azoles' antibacterial activity against other Neisseria species (Table 8).

N. lactamica = assay: MIC against Neisseria spp.; assay type: cell-based; settings: N. lactamica (1 strain)
Source text: as §1

N. flavescens = assay: MIC against Neisseria spp.; assay type: cell-based; settings: N. flavescens (1 strain)
Source text: as §1

L. gasseri = assay: MIC against commensal vaginal Lactobacillus strains; assay type: cell-based, Lactobacillus gasseri; settings: for MIC: Lactobacillus gasseri; for MIC Range: Table 6, L. gasseri (4 strains)
Source text: (§2) N. gonorrhoeae pathogenesis greatly depends on colonization of the reproductive tract. One of the natural barriers of such colonization is an intact healthy microbiome. Species of lactobacilli present in the genitourinary tract play a significant role in hindering colonization by Neisseria(1).
(§3) A healthy vaginal microbiome that is dominated by Lactobacillus spp. is less susceptible to N. gonorrhoeae infection and other sexually transmitted diseases (STDs). […] We tested the activity of azoles against important members of healthy vaginal microbiota that inhibit N. gonorrhoeae colonization.

L. jensenii = assay: as above; assay type: cell-based, Lactobacillus jensenii; settings: for MIC: Lactobacillus jensenii; for MIC Range: Table 6, L. jensenii (7 strains)
Source text: as §2, §3

Lactobacillus brevis = assay: MIC against normal gut microbiota; assay type: cell-based; settings: Lactobacillus brevis (1 strain)
Source text: (§4) Disrupting the intestinal microbiota using broad-spectrum antimicrobial therapy increases the susceptibility of hosts to C. difficile colonization.

Enterococcus faecium = assay: MIC against normal gut microbiota; assay type: cell-based; settings: Enterococcus faecium (1 strain)
Source text: as §4

Lactobacillus rhamnosus = assay: MIC against normal gut microbiota; assay type: cell-based; settings: Lactobacillus rhamnosus (1 strain)
Source text: as §4

Lactobacillus casei = assay: MIC against normal gut microbiota; assay type: cell-based; settings: Lactobacillus casei (1 strain)
Source text: as §4

[1] = tested on: Bifidobacterium angulatum; assay: MIC against normal gut microbiota; assay type: cell-based; settings: Bifidobacterium angulatum (1 strain)
Source text: as §4

Bacteroides dorei = assay: MIC against normal gut microbiota; assay type: cell-based; settings: Bacteroides dorei (2 strains)
Source text: as §4

Enterococcus faecalis = assay: MIC against normal gut microbiota; assay type: cell-based; settings: Enterococcus faecalis (1 strain)
Source text: as §4

[2] = MIC against normal gut microbiota; assay type: cell-based
Source text: as §4

Escherichia coli = assay: MIC against normal gut microbiota; assay type: cell-based; settings: Escherichia coli (1 strain)
Source text: as §4

Staphylococcus aureus = assay: MIC against normal gut microbiota; assay type: cell-based; settings: Staphylococcus aureus (1 strain)
Source text: as §4

[3] = tested on: commensal vaginal lactobacilli strains; assay: MIC against all commensal vaginal Lactobacillus strains tested; assay type: cell-based, Lactobacillus spp.; settings: all species/strains of Lactobacillus tested (Example 2); read-out: MIC
Source text: as §2, §3

L. johnsonii = assay: MIC against commensal vaginal Lactobacillus strains; assay type: cell-based, Lactobacillus johnsonii; settings: for MIC Range: Table 6, L. johsonii (2 strains)
Source text: as §2, §3

[4] = tested on: resistant N. gonorrhoeae isolates; assay: MIC against resistant N. gonorrhoeae isolates by agar dilution; assay type: cell-based, Neisseria gonorrhoeae
L. crispatus = assay: MIC against commensal vaginal Lactobacillus strains; assay type: cell-based, Lactobacillus crispatus; settings: for MIC: Lactobacillus crispatus; for MIC Range: Table 6, L. crispatus (3 strains)
Source text: as §2, §3

Bacteroides fragilis = assay: MIC against normal gut microbiota; assay type: cell-based; settings: Bacteroides fragilis (4 strains)
Source text: as §4

[5] = Table 1, 104 N. gonorrhoeae isolates
[6] = Table 3, 103 N. gonorrhoeae isolates with different resistance profiles
[7] = Bacteroides adolescentis (2 strains)

Compound: CC[C@H]1OC(=O)[C@H](C)[C@@H](O[C@H]2C[C@@](C)(OC)[C@@H](O)[C@H](C)O2)[C@H](C)[C@@H](O[C@@H]2O[C@H](C)C[C@H](N(C)C)[C@H]2O)[C@](C)(O)C[C@@H](C)CN(C)[C@H](C)[C@@H](O)[C@]1(C)O [Azithromycin]
- PAE (N. gonorrhoeae; strain FA 1090): 6 h
- PAE (N. gonorrhoeae; strain WHO P): 8 h
- PAE (N. gonorrhoeae; strain WHO Y): 4 h
- MIC50 (N. gonorrhoeae isolates; [5]): 1 mg/L (≈ 1.34 µM)
- MIC90 (N. gonorrhoeae isolates; [5]): 4 mg/L (≈ 5.34 µM)
- MIC50 (N. gonorrhoeae isolates; [6]): 1 mg/L (≈ 1.34 µM)
- MIC90 (N. gonorrhoeae isolates; [6]): 4 mg/L (≈ 5.34 µM)
- MIC Range (N. gonorrhoeae isolates; [5]): 0.03 to 512 mg/L
- MIC Range (N. gonorrhoeae isolates; [6]): 0.03 to 512 mg/L
- MIC Range (N. mucosa): 2 mg/L (≈ 2.67 µM)
- MIC Range (N. lactamica): 2 mg/L (≈ 2.67 µM)
- MIC Range (N. flavescens): 2 mg/L (≈ 2.67 µM)
- MIC (L. gasseri; L. gasseri HM-407): ≤ 0.5 mg/L
- MIC (L. gasseri; L. gasseri HM-642): 2 mg/L (≈ 2.67 µM)
- MIC (L. gasseri; L. gasseri HM-644): 2 mg/L (≈ 2.67 µM)
- MIC (L. gasseri; L. gasseri HM-647): 1 mg/L (≈ 1.34 µM)
- MIC Range (L. gasseri): ≤1 mg/L
- MIC (L. jensenii; L. jensenii HM-105): ≤ 0.5 mg/L
- MIC (L. jensenii; L. jensenii HM-372): 1 mg/L (≈ 1.34 µM)
- MIC (L. jensenii; L. jensenii HM-374): 1 mg/L (≈ 1.34 µM)
- MIC (L. jensenii; L. jensenii HM-639): 1 mg/L (≈ 1.34 µM)
- MIC (L. jensenii; L. jensenii HM-640): ≤ 0.5 mg/L
- MIC (L. jensenii; L. jensenii HM-645): 1 mg/L (≈ 1.34 µM)
- MIC (L. jensenii; L. jensenii HM-646): 2 mg/L (≈ 2.67 µM)
- MIC Range (L. jensenii): ≤1 mg/L
- MIC Range (Lactobacillus brevis): 1 mg/L (≈ 1.34 µM)
- MIC Range (Enterococcus faecium): 0.25 mg/L (≈ 0.334 µM)
- MIC Range (Lactobacillus rhamnosus): 1 mg/L (≈ 1.34 µM)
- MIC Range (Lactobacillus casei): 0.5 mg/L (≈ 0.668 µM)
- MIC Range [1]: 0.03 mg/L (≈ 0.0401 µM)
- MIC Range (Bacteroides dorei): 4 to 16 mg/L
- MIC Range (Enterococcus faecalis): 2 mg/L (≈ 2.67 µM)
- MIC Range [2, 7]: 0.015 mg/L (≈ 0.02 µM)
- MIC Range ([2]; Bacteroides breve (2 strains)): 0.03 to 0.06 mg/L
- MIC Range ([2]; Bacteroides longum (2 strains)): 0.25 mg/L (≈ 0.334 µM)
- MIC Range (Escherichia coli): 2 mg/L (≈ 2.67 µM)
- MIC Range (Staphylococcus aureus): 0.25 mg/L (≈ 0.334 µM)
- MIC [3]: < 1 mg/L
- MIC (L. johnsonii; Lactobacillus johnsonii, L. johnsonii HM-643): 2 mg/L (≈ 2.67 µM)
- MIC Range (L. johnsonii): ≤1 mg/L
- MIC ([4]; strain CDC-174, agar dilution): 1 mg/L (≈ 1.34 µM)
- MIC ([4]; strain CDC-179, agar dilution): 8 mg/L (≈ 10.7 µM)
- MIC ([4]; strain CDC-181, agar dilution): 256 mg/L (≈ 342 µM)
- MIC ([4]; strain WHO-L, agar dilution): 0.5 mg/L (≈ 0.668 µM)
- MIC ([4]; strain WHO-X, agar dilution): 0.5 mg/L (≈ 0.668 µM)
- MIC ([4]; strain WHO-Y, agar dilution): 1 mg/L (≈ 1.34 µM)
- MIC ([4]; strain WHO-Z, agar dilution): 1 mg/L (≈ 1.34 µM)
- MIC (L. crispatus; L. crispatus HM-103): 1 mg/L (≈ 1.34 µM)
- MIC (L. crispatus; L. crispatus HM-371): 2 mg/L (≈ 2.67 µM)
- MIC (L. crispatus; L. crispatus HM-638): 1 mg/L (≈ 1.34 µM)
- MIC Range (L. crispatus): ≤1 mg/L

- MIC50 (N. gonorrhoeae isolates; [5]): 0.25 mg/L (≈ 0.557 µM)
- MIC90 (N. gonorrhoeae isolates; [5]): 0.5 mg/L (≈ 1.11 µM)
- MIC50 (N. gonorrhoeae isolates; [6]): 0.5 mg/L (≈ 1.11 µM)
- MIC90 (N. gonorrhoeae isolates; [6]): 1 mg/L (≈ 2.23 µM)
- MIC Range (N. gonorrhoeae isolates; [5]): 0.03 to 8 mg/L
- MIC Range (N. gonorrhoeae isolates; [6]): 0.03 to 8 mg/L
- MIC Range (L. gasseri): ≤1 mg/L
- MIC Range (L. jensenii): ≤1 mg/L
- MIC [3]: < 1 mg/L
- MIC Range (L. johnsonii): ≤1 mg/L
- MIC Range (L. crispatus): ≤1 mg/L
Compound: O=c1ccc2ncc(=O)n3c2n1C[C@H]3CN1CCC(NCc2cc3c(cn2)OCCC3)CC1 [Gepotidacin]
- MIC Range (Lactobacillus brevis): 0.5 mg/L (≈ 1.11 µM)
- MIC Range (Enterococcus faecium): 2 mg/L (≈ 4.46 µM)
- MIC Range (Bacteroides fragilis): 0.25 to 2 mg/L
- MIC Range (Lactobacillus rhamnosus): 0.5 mg/L (≈ 1.11 µM)
- MIC Range (Lactobacillus casei): 0.25 mg/L (≈ 0.557 µM)
- MIC Range [1]: 0.125 mg/L (≈ 0.279 µM)
- MIC Range (Bacteroides dorei): 0.125 mg/L (≈ 0.279 µM)
- MIC Range (Enterococcus faecalis): 1 mg/L (≈ 2.23 µM)
- MIC Range [2, 7]: <0.125 mg/L
- MIC Range ([2]; Bacteroides breve (2 strains)): <0.125 mg/L
- MIC Range ([2]; Bacteroides longum (2 strains)): 0.5 mg/L (≈ 1.11 µM)
- MIC Range (Escherichia coli): 0.125 mg/L (≈ 0.279 µM)
- MIC Range (Staphylococcus aureus): 0.25 mg/L (≈ 0.557 µM)
